Results: patent publication US20100041647A1, “3-Substituted-[1,2,3]-Benzotriazinone compounds for enhancing glutamatergic synaptic responses” (CORTEX PHARMACEUTICALS, INC., priority 2007, published 2010)

What was measured:
AMPA receptor [1] = assay: Patch clamp electrophysiology assay (glutamate-induced whole-cell current in cultured cortical neurons); type: cell-based; conditions: Concentration at which glutamate induced current is increased by 100%; 500 μM glutamate, rat cortical neurons
Method: Cortical cells were prepared from day 18-19 embryonic Sprague-Dawley rats and recorded after 3 days in culture. The extracellular solution (ECS) contained (in mM): NaCl (145), KCl (5.4), HEPES (10), MgCl2 (0.8), CaCl2 (1.8), glucose (10), sucrose (30); pH. 7.4. In order to block the voltage-gated sodium currents, 40 nM TTX was added to the recording solution. The intracellular solution contained (in mM): K-gluconate (140), HEPES (20), EGTA (1.1), phosphocreatine (5), MgATP (3), GTP (0.3), MgCl2 (5), and CaCl2 (0.1); pH: 7.2. All test compound and glutamate solutions were made-up in the extracellular solution.
The whole-cell current was measured with patch-clamp amplifier (Axopatch 200B), filtered at 2 kHz, digitized at 5 kHz and recorded on a PC with pClamp 8. The cells were voltage-clamped at −80 mV. Solutions were applied by DAD-12 system. A baseline response for each cell was recorded using a I s pulse of 500 μM glutamate dissolved in ECS. Responses to test compound were then determined by application of a 10 s pulse of test compound followed by a 1 s pulse of the same concentration of test compound plus 500 μM glutamate and then 10 s of saline. This pulse sequence was repeated until a stable reading was obtained, or until sufficient data points were measured to allow extrapolation to a calculated maximum change.
The mean value of plateau current between 600 ms to 900 ms after application of glutamate or test compound plus glutamate was calculated and used as the parameter to measure the drug effect. The plateau responses in the presence of varying concentrations of test compound were divided by the baseline response in order to calculate the percentage increase. Compounds are deemed active in this test if, at a test concentration of 3 μM or less, they produce a greater than 100% increase in the value of the steady-state current measured due to application of glutamate alone. The concentration at which the glutamate induced current is increased by 100% is commonly referred to as the EC2x value.

AMPA receptors = assay: Rat hippocampal slice assay (field EPSP in CA1); type: cell-based
Method: (§1) In another test, excitatory responses (field EPSPs) were measured in hippocampal slices, which were maintained in a recording chamber continuously perfused with artificial cerebrospinal fluid (ACSF). During a 15-30 minute interval, the perfusion medium was switched to one containing various concentrations of the test compounds. Responses collected immediately before and at the end of drug perfusion were superimposed in order to calculate the percent increase in EPSP amplitude.
The field EPSP (excitatory post-synaptic potential) recorded in field CA1 after stimulation of CA3 axons is known to be mediated by AMPA receptors, which are present in the synapses (Kessler et al., Brain Res. 560: 337-341 (1991)). Drugs that selectively block the receptor selectively block the field EPSP (Muller et al., Science, supra). […] These effects are mirrored in the field EPSP (see, for example, Staubli et al., Psychobiology, supra; Xiao et al., Hippocampus, supra; Staubli et al., Hippocampus 2: 4958 (1992)).
To obtain data for the activity of invention compounds on synaptic responses, a bipolar nichrome stimulating electrode was positioned in the dendritic layer (stratum radiatum) of the hippocampal subfield CA1 close to the border of subfield CA3, as described in Example 30. Current pulses (0.1 msec) through the stimulating electrode activate a population of the Schaffer-commissural (SC) fibers, which arise from neurons in the subdivision CA3 and terminate in synapses on the dendrites of CA1 neurons. Activation of these synapses causes them to release the transmitter glutamate. Glutamate binds to post-synaptic AMPA receptors, which then transiently open an associated ion channel and permit a sodium current to enter the postsynaptic cell. This current results in a voltage in the extracellular space (the field EPSP), which is recorded by a high impedance recording electrode positioned in the middle of the stratum radiatum of CA1.
The intensity of the stimulation current was adjusted to produce half-maximal EPSPs (typically about 1.5-2.0 mV). Paired stimulation pulses were given every 40 sec with an interpulse interval of 200 msec, as described further in Example 30.
as §1, with “Hippocampal slices” for “In another test, excitatory responses (field EPSPs) were measured in hippocampal slices, which”, “During” for “During a”, “intervals,” for “interval,”

AMPA receptor [2] = assay: In vivo electrophysiology (field EPSP in dentate gyrus of anesthetized animals); parameters: species or system rat
Method: The physiological effects of invention compounds were tested in vivo in anesthetized animals according to the following procedures.
Animals are maintained under anesthesia by phenobarbital administered using a Hamilton syringe pump. Stimulating and recording electrodes are inserted into the perforant path and dentate gyrus of the hippocampus, respectively. Once electrodes are implanted, a stable baseline of evoked responses are elicited using single monophasic pulses (100 μs pulse duration) delivered at 3/min to the stimulating electrode. Field EPSPs are monitored until a stable baseline is achieved (about 20-30 min), after which a solution of test compound in HPCD is injected intraperitoneally and evoked field potentials are recorded. Evoked potentials are recorded for approximately 2 h following drug administration or until the amplitude of the field EPSP returns to baseline. In the latter instance, it is common that an iv administration is also carried out with an appropriate dose of the same test compound.

Compound	In vitro Patch Clamp Electrophysiology EC2x (AMPA receptor [1]) [nM]	% Increase in the amplitude of the field EPSP in the CA1 region of rat hippocampal slice (AMPA receptors; @ 3 μM) [% @ 3 μM]	% increase in the amplitude of the field EPSP in rat dentate gyrus (AMPA receptor [2]; 5 mpk i.p.) [%^3]	% increase in the amplitude of the field EPSP in rat dentate gyrus (AMPA receptor [2]; 5 mpk i.v.) [%^4]	% Increase in the amplitude of the field EPSP in the CA1 region of rat hippocampal slice (AMPA receptors; @ 10 μM) [% @ 10 μM]
O=C1c2cc3nnn(CCc4cccc(F)c4)c(=O)c3cc2OC2CCCN12 (stereo not drawn) [Example 1, 3-[2-(3-Fluorophenyl)ethyl]-6a,7,8,9-tetrahydro-3H-pyrrolo[2′,1′:2,3][1,3]oxazino[6,5-g][1,2,3]benzotriazine-4,11-dione]	3	9	24		
O=C1c2cc3nnn(C4CC4)c(=O)c3cc2OC2CCCN12 (stereo not drawn) [Example 4, 3-Cyclopropyl-6a,7,8,9-tetrahydro-3H-pyrrolo[2′,1′:2,3][1,3]oxazino[6,5-g][1,2,3]benzotriazine-4,11-dione]	400	5		19	
C#CCn1nnc2cc3c(cc2c1=O)OC1CCCN1C3=O (stereo not drawn) [Example 9, 3-Prop-2-yn-1-yl-6a,7,8,9-tetrahydro-3H-pyrrolo[2′,1′:2,3][1,3]oxazino[6,5-g][1,2,3]benzotriazine4,11-dione]	140	11		11	
N#CCn1nnc2cc3c(cc2c1=O)OC1CCCN1C3=O (stereo not drawn) [Example 10, (4,11-Dioxo-4,6a,7,8,9,11-hexahydro-3H-pyrrolo[2′,1′:2,3][1,3]oxazino[6,5-g][1,2,3]benzotriazin-3-yl)acetonitrile]	190		12		10
C#C[C@H](Cc1cc(F)cc(F)c1)n1nnc2cc3c(cc2c1=O)O[C@@H]1CCCN1C3=O [Example 16, (6aR)-3-[(2S)-1-(3,5-Difluorophenyl)but-3-yn-2-yl]-6a,7,8,9-tetrahydro-3H-pyrrolo[2′,1′:2,3][1,3]oxazino[6,5-g][1,2,3]benzotriazine-4,11-dione]	3	1	34		
C[C@H](CSC#N)n1nnc2cc3c(cc2c1=O)OC1CCCN1C3=O (stereo partly drawn) [Example 35, (2R)-2-(4,11-Dioxo-4,6a,7,8.9,11-hexahydro-3H-pyrrolo[2′,1′:2,3][1,3]oxazino[6,5-g][1,2,3]benzotriazin-3-yl)propyl thiocyanate]	80		19		
O=C1c2cc3nnn(CCn4cccn4)c(=O)c3cc2OC2CCCN12 (stereo not drawn) [Example 36, 3-[2-(1H-Pyrazol-1-yl)ethyl]-6a,7,8,9-tetrahydro-3H-pyrrolo[2′,1′:2,3][1,3]oxazino[6,5-g][1,2,3]benzotriazine-4,11-dione]	100	12		18	
C[C@H](Cn1ncnn1)n1nnc2cc3c(cc2c1=O)OC1CCCN1C3=O (stereo partly drawn) [Example 37A, 3-[(2R)-1-(2H-Tetrazol-2-yl)propan-2-yl]-6a,7,8,9-tetrahydro-3H-pyrrolo[2′,1′:2,3][1,3]oxazino[6,5-g][1,2,3]benzotriazine-4,11-dione]	40		39		
C[C@H](Cn1ncnn1)n1nnc2cc3c(cc2c1=O)OC1COCCN1C3=O (stereo partly drawn) [Example 64, 3-[(2R)-1-(2H-Tetrazol-2-yl)propan-2-yl]-6a,7,9,10-tetrahydro-3H-[1,4]oxazino[3′,4′:2,3][1,3]oxazino[6,5-g][1,2,3]benzotriazine-4,12-dione]	170		30		
